This note sets out measurements from ChEMBL document CHEMBL1148822, “Principal component analysis differentiates the receptor binding profiles of three antipsychotic drug candidates from current antipsychotic drugs” (J Med Chem, 2007).

Calls of active or inactive are those of the source. The calls are words filed in the database; no cut-off is given here.

The target in assay [1] is T1, 5-hydroxytryptamine receptor 2C (Homo sapiens) (UniProt P28335).
T1 sequence (whole entry): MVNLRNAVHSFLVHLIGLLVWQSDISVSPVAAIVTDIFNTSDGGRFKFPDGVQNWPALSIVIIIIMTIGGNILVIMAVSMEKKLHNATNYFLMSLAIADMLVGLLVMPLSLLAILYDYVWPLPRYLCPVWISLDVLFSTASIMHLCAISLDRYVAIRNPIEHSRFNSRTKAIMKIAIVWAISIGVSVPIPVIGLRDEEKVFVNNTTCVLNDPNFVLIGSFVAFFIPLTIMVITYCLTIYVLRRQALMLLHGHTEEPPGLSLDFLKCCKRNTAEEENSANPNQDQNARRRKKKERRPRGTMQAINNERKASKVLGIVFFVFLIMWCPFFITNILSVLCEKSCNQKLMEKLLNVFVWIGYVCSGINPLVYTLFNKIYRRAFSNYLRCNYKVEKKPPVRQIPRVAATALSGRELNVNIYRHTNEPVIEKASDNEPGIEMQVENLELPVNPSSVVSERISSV
The conditions noted are these: CHO.
Description: (§1) Displacement of [3H]mesulergine from 5HT2C receptor expressed in CHO cells

Assay [2] concerns the target Histamine H1 receptor (Cavia porcellus) (UniProt P31389). To be noted: Cerebellum.
Description: Displacement of [3H]pyrilamine from histaminergic H1 receptor guinea pig cerebellum
In assay [3] the target is T2, Adrenergic receptor alpha-2 (Rattus norvegicus, UniProt P22086+P19328+P22909).
T2 sequence (P22086 whole entry): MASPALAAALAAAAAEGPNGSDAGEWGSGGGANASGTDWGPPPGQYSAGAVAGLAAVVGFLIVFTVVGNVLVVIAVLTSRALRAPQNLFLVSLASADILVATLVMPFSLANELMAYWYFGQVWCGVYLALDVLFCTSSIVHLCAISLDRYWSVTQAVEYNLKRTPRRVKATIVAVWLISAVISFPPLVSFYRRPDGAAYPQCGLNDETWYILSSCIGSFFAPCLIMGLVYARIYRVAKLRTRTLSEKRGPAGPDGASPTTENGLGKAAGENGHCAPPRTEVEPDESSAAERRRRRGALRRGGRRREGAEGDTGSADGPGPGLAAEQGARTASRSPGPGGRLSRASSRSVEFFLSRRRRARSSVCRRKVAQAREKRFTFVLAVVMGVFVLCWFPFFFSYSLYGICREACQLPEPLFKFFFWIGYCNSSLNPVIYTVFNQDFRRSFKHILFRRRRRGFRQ
T2 sequence (P19328 whole entry): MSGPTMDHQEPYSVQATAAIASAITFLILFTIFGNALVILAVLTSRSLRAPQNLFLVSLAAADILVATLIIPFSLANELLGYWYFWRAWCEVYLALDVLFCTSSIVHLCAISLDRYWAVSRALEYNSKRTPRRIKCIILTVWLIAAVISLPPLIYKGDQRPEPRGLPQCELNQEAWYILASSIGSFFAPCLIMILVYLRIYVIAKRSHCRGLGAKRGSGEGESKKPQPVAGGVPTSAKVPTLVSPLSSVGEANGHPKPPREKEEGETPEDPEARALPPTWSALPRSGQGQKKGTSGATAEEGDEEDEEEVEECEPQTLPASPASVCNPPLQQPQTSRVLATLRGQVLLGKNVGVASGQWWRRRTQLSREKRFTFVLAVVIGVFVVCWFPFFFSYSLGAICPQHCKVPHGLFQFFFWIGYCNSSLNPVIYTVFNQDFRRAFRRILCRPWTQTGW
T2 sequence (P22909 whole entry): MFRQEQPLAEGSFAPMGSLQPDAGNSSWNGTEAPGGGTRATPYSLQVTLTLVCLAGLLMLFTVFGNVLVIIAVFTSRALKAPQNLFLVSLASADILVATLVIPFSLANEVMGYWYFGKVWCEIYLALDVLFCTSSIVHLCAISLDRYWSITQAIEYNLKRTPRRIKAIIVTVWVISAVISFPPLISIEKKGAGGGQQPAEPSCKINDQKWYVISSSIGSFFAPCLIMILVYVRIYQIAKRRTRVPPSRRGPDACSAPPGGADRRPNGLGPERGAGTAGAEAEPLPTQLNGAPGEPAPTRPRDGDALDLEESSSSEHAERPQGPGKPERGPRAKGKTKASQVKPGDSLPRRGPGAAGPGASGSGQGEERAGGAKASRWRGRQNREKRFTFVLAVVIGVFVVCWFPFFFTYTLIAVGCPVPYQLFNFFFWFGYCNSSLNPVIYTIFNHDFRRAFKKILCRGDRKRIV
Description: Displacement of [3H]RX 821002 from adrenergic alpha-2 receptor in rat cerebral cortex

The target of assay [4] is T3, 5-hydroxytryptamine receptor 6 (Homo sapiens, UniProt P50406). To be noted: HEK293.
T3 sequence (P50406 whole entry): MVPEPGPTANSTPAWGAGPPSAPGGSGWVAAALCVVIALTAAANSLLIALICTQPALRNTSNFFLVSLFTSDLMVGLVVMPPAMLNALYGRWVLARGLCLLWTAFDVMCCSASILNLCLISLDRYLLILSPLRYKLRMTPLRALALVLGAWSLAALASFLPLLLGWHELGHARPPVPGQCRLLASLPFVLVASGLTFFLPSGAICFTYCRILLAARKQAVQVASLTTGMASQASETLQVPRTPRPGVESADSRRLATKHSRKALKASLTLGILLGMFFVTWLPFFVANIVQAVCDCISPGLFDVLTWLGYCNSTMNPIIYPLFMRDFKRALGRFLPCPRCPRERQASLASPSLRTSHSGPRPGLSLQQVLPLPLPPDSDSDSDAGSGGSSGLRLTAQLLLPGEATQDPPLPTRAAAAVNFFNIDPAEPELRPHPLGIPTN
Description: (§2) Displacement of [3H]LSD from human 5HT6 receptor expressed in HEK293 cells
For assay [5], the target named is Serotonin 3 (5-HT3) receptor. The conditions noted are these: hek293.
Description: Displacement of [3H]BLR-43694 from human 5HT3 receptor expressed in HEK293 cells
Assay [6] addresses T4, 5-hydroxytryptamine receptor 2C (Homo sapiens, UniProt P28335).
T4 sequence (P28335 whole entry): T1 sequence (whole entry)
Kind of assay: biochemical.
Description: as §1

The target of the next assay is D(3) dopamine receptor (Homo sapiens, UniProt P35462). Kind of assay: biochemical.
D(3) dopamine receptor, sequence (P35462 whole entry): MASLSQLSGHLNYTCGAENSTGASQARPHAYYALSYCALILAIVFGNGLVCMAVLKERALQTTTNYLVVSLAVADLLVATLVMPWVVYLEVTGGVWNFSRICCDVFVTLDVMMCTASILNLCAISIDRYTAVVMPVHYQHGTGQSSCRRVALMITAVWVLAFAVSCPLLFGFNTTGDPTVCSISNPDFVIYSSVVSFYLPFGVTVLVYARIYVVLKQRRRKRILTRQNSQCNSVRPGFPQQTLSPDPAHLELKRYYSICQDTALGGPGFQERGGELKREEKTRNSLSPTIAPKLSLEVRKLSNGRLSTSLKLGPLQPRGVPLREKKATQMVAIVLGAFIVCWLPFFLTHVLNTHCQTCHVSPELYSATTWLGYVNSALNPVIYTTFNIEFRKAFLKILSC
For assay [7], the target named is Sodium-dependent serotonin transporter (Homo sapiens, UniProt P31645). Kind of assay: biochemical. The assay is classed as cell-based, HEK293.
Sodium-dependent serotonin transporter, sequence (P31645 whole entry): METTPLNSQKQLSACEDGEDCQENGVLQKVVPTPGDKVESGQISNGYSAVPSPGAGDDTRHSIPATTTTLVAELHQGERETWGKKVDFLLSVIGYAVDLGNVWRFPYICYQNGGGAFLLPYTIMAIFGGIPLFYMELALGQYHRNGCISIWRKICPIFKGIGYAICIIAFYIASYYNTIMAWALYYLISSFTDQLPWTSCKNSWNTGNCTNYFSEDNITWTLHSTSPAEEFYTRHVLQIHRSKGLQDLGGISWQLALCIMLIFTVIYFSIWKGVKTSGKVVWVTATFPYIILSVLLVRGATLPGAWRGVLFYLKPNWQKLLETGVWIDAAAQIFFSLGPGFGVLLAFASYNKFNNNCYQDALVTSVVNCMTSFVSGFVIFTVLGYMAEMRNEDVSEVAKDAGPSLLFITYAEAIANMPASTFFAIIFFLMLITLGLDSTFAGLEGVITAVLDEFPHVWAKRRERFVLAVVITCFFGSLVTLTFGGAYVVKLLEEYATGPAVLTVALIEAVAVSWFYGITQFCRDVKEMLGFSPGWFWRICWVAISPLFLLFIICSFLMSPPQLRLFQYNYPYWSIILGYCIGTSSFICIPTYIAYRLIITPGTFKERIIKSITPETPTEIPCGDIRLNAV
Description: Displacement of [3H]paraxetine from human 5HT transporter expressed in HEK293 cells
Another assay concerns the target T5, D(4) dopamine receptor (Homo sapiens, UniProt P21917).
T5 sequence (P21917 whole entry): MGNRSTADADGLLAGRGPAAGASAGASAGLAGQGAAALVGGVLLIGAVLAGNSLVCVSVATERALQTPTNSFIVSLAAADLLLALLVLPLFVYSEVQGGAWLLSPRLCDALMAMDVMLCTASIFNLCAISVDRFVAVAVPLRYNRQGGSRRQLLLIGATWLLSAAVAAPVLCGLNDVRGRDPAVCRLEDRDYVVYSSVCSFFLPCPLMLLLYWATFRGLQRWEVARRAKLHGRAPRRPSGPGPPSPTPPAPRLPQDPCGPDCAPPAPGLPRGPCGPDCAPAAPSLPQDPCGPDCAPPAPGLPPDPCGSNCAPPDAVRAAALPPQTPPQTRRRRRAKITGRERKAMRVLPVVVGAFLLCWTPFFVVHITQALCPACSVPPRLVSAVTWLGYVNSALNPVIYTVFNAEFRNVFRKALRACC
Nature of the assay: biochemical.

The next assay addresses Histamine H1 receptor (Cavia porcellus, UniProt P31389). Nature of the assay: biochemical.
Assay [8] deals with 5-hydroxytryptamine receptor 7 (Homo sapiens, UniProt P34969). Nature of the assay: biochemical.
5-hydroxytryptamine receptor 7, sequence (P34969 whole entry): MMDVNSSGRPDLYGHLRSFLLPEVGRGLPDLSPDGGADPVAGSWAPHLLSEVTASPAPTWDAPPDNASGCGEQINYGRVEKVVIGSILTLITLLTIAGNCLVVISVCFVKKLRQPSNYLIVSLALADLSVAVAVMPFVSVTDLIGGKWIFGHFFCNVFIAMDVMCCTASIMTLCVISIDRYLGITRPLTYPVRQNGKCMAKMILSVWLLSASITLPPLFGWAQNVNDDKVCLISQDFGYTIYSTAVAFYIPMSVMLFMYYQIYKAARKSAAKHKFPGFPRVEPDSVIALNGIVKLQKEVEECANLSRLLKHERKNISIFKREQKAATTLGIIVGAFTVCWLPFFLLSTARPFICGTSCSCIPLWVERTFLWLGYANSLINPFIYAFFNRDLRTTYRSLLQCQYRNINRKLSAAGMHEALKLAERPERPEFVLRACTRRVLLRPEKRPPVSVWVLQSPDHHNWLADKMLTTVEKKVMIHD
Description: Displacement of [3H]LSD from human 5HT7 receptor expressed in CHO cells
Assay [9] concerns the target T6, Adrenergic receptor alpha-1 (Rattus norvegicus, UniProt P15823+P23944+P43140).
T6 sequence (P15823 whole entry): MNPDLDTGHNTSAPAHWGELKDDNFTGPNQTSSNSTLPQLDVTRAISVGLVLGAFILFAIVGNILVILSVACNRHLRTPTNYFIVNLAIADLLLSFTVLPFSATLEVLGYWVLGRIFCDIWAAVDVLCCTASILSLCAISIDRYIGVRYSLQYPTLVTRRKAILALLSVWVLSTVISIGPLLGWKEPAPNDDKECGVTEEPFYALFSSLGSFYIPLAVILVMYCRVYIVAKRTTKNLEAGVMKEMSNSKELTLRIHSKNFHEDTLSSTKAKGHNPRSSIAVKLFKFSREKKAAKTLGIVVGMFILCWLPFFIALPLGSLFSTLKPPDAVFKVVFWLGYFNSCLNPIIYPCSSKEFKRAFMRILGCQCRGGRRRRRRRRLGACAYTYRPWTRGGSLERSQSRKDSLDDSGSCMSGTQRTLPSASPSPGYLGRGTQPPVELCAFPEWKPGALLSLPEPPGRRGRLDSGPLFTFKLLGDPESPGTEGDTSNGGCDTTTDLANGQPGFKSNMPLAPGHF
T6 sequence (P23944 whole entry): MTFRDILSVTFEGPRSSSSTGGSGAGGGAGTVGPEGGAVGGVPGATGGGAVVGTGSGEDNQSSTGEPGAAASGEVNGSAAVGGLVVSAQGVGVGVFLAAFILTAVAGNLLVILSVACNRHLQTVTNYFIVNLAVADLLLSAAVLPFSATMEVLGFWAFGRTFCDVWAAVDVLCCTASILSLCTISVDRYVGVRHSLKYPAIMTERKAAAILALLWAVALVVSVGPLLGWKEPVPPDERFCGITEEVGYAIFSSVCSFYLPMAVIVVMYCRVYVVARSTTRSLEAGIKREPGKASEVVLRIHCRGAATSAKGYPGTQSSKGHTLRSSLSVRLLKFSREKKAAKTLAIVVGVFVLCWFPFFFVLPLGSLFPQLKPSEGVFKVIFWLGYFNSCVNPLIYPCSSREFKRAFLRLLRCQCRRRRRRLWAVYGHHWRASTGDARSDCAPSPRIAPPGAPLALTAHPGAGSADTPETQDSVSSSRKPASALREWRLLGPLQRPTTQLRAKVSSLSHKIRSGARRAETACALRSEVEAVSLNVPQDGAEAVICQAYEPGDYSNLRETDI
T6 sequence (P43140 whole entry): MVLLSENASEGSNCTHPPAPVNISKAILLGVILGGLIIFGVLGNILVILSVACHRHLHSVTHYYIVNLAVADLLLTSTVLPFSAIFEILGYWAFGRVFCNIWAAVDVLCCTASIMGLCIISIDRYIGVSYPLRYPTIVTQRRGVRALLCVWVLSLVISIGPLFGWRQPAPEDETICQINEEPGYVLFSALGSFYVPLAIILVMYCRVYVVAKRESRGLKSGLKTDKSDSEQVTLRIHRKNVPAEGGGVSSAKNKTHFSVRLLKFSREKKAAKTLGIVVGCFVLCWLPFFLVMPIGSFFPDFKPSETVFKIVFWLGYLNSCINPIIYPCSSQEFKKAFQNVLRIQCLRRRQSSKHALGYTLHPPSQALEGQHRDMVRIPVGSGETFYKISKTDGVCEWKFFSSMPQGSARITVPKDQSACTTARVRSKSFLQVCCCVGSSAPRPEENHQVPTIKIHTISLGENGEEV
Description: Displacement of [3H]prazosin from adrenergic alpha1 receptor in rat cerebral cortex

For assay [10], the target named is T7, 5-hydroxytryptamine receptor 1A (Homo sapiens, UniProt P08908).
T7 sequence (P08908 whole entry): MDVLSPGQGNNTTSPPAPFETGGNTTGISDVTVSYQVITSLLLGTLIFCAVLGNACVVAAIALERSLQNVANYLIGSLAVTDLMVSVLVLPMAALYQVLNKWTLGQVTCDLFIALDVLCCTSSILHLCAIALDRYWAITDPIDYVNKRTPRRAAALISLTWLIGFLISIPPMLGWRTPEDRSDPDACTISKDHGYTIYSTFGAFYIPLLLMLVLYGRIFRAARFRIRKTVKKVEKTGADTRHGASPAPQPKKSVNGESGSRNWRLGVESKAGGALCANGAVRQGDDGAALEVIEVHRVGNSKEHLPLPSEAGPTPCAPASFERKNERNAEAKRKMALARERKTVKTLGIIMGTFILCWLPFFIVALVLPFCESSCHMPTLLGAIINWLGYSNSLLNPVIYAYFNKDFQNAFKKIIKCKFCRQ
Kind of assay: biochemical.
Description: Displacement of [3H]8-OH-DPAT from human 5HT1A receptor expressed in CHO cells

The target in assay [11] is 5-hydroxytryptamine receptor 2A (Homo sapiens, UniProt P28223). Kind of assay: biochemical. The assay is classed as cell-based, CHO.
5-hydroxytryptamine receptor 2A, sequence (P28223 whole entry): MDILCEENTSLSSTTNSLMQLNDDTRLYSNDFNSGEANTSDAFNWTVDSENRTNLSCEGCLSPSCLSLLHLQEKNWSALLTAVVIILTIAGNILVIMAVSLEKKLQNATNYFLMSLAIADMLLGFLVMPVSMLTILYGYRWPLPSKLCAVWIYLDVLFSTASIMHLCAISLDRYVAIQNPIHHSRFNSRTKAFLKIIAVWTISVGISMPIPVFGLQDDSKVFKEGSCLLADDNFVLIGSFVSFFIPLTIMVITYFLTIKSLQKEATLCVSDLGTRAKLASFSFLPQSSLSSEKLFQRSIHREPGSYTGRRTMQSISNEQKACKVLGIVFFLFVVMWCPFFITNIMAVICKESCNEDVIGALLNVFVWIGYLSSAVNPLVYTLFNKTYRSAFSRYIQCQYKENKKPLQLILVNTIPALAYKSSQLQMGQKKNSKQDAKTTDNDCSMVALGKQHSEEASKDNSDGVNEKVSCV
Description: Displacement of [3H]ketanserin from human 5HT2A receptor expressed in CHO cells
Assay [12] concerns the target 5-hydroxytryptamine receptor 2B (Homo sapiens, UniProt P41595). Kind of assay: biochemical.
Description: Displacement of [3H]LSD from 5HT2B receptor expressed in CHO cells
Assay [13] has as its target T3, 5-hydroxytryptamine receptor 6. Nature of the assay: biochemical.
Description: as §2

Histamine H1 receptor, sequence (P31389 whole entry): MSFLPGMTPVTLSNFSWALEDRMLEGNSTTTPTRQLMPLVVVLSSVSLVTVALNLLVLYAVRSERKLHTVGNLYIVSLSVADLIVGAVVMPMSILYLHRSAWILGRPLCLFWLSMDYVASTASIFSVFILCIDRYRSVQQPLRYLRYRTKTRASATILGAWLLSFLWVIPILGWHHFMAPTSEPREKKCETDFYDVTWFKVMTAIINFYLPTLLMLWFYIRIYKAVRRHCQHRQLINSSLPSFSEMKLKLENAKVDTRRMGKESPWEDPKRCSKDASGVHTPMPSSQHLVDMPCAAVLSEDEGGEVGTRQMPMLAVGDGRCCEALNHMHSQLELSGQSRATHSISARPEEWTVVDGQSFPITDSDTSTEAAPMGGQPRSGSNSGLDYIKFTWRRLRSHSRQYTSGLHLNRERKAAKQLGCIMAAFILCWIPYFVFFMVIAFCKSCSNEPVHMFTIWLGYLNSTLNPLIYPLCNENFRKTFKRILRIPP
5-hydroxytryptamine receptor 2B, sequence (P41595 whole entry): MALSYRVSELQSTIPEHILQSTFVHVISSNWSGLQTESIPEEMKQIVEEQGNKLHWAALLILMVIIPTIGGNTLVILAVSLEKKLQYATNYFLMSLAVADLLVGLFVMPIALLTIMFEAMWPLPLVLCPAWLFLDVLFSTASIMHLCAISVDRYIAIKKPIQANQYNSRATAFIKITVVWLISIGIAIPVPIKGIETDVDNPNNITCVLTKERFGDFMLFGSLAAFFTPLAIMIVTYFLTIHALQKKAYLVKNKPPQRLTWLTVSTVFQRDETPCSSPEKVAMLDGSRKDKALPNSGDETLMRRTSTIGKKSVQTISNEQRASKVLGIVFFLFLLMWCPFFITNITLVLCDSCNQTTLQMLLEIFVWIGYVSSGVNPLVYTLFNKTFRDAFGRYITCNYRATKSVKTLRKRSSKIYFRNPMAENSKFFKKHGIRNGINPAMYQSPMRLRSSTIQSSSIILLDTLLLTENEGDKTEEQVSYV
Histamine H1 receptor (Cavia porcellus), sequence (P31389 whole entry): as the sequence (P31389 whole entry) above
Description for D(3) dopamine receptor: Displacement of [3H]spiperone from human dopamine D3 receptor expressed in CHO cells
Description for D(4) dopamine receptor: Displacement of [3H]spiperone from human dopamine D4.4 receptor expressed in CHO cells

As for `CCN1CCCC1CNC(=O)c1cc(S(=O)(=O)CC)c(N)cc1OC` (configuration not stated) [AMISULPRIDE], the result in [1], in assay [2] and in assay [4] was inactive. Also, the “Log Ki” value in assay [3] is given as -6.9.

`Cc1cc2c(s1)Nc1ccccc1N=C2N1CCN(C)CC1` [OLANZAPINE]: the “Log Ki” value in [5] is reported as -6.7.

Turning to `C[C@H]1Oc2c(cccc2N2CCN(CCCc3c[nH]c4ccc(F)cc34)CC2)NC1=O`, the Ki (usually the dissociation constant of the complex between target and ligand, obtained from inhibition or displacement) is 200 nM in assay [6]; 0.501 nM at D(3) dopamine receptor; 0.251 nM in [7]; 1.58 nM at D(4) dopamine receptor; 126 nM on Histamine H1 receptor; 7.94 nM in assay [8]. In addition, the results for the inhibition constant Ki in assay [10], in assay [11] and in assay [12] were 5.01 nM, 20 nM and 1 nM, respectively. For the same molecule, the “Log Ki” value in assay [9] is given as -7.8. Besides, in [4], the outcome was inactive.

Regarding `O=C1c2ccccc2C(=O)N1CCCCN1CC=C(c2c[nH]c3ccc(F)cc23)CC1`, the Ki in [6] is 39.8 nM; at D(3) dopamine receptor, 0.794 nM; in [7], 0.794 nM; at D(4) dopamine receptor, 79.4 nM; in assay [13], 398 nM; at Histamine H1 receptor, 31.6 nM. Further, the Ki was 100 nM in assay [8], 2.51 nM in assay [10], 100 nM in assay [11] and 1.58 nM in [12]. For the same molecule, the “Log Ki” value in [3] is on record as -6.6.

Consider `Cc1nc2n(c(=O)c1CCN1CCC(c3noc4cc(F)ccc34)CC1)CCCC2`, for which the outcome in [4] was inactive.

As for `OCCOCCN1CCN(C2=Nc3ccccc3Sc3ccccc32)CC1` [QUETIAPINE], the outcome in [1] and in assay [4] was inactive.

For `Fc1ccc(-c2cncc(CN3CCN(c4cccc5c4OCCO5)CC3)c2)cc1` [ADOPRAZINE], the result in assay [1], in assay [2] and in [4] was inactive. Also, the “Log Ki” value in assay [9] is -6.3. In addition, the inhibitory constant (Ki) in [12] is 12.6 nM.

Regarding `O=C1Cc2cc(CCN3CCN(c4nsc5ccccc45)CC3)c(Cl)cc2N1` [ZIPRASIDONE], the Ki in assay [13] was 63.1 nM; at Histamine H1 receptor it was 15.8 nM; in assay [8], 5.01 nM; in [10], 1.58 nM; in [12], 1.58 nM. The “Log Ki” value in [9] was -8.1; in assay [5] it was -6.4.
